Experimental data: US20230303577A1, “TEMOZOLOMIDE ANALOGS AND METHODS OF USE” (St. John's Cancer Institute, priority 2020, published 2023)
Like-named read-outs stand apart in the source and are kept apart here. One block for each compound: values may come before it.

Tests used:
[1] = Pre-formulation testing: solubility, pH and stability in vehicles; type: physicochemical
Method: Two formulations for TP3 and TMZ were prepared (Tables 10 and 11). Pre-formulation testing was in volumes of 100 μl-250 μl, and should be confirmed with larger volumes. Mice were dosed at 20 mg/kg of TMZ and TP3 using formulation 2 orally and brain and plasma samples were collected at 0, 0.5, 1, 3, 6 and 12 h timepoints and the concentration was measured using LC-MS and calculate PK parameters using standard equation. The stability profile (FIGS. 9A and 9B) and release kinetics profiles (FIGS. 10A and 10B) were compared. Single dose oral brain to plasma pharmacokinetic parameters were determined with Formulation 2 (Table 12).

U251 Parent (Sensitive) = experiment: AlamarBlue cell viability, U251 parent (TMZ sensitive); type: cell-based; conditions: Homo sapiens, U-251; 72 hours
Method: (§1) Cells were seeded in 96-well plates. The day after, cells were treated with various concentrations of temozolomide or TP3. Cell viability was measured by AlamarBlue™ cell viability reagent after 72 hours, considering the control level of cells to be 100%.

U87MG Parent (Sensitive) = experiment: AlamarBlue cell viability, U87MG parent (TMZ sensitive); type: cell-based; conditions: Homo sapiens, U-87 MG; 72 hours
Method: as §1

U87MG Resistant = experiment: AlamarBlue cell viability, U87MG TMZ resistant; type: cell-based; conditions: Homo sapiens, U-87 MG; 72 hours
Method: as §1

[2] = Aqueous chemical stability (HPLC-MS); type: physicochemical
Method: Detection of products of non-enzymatic cleavage (AIC-TMZ, AIC-TP3, AIC-TP5, and AIC-TP9) was performed (Table 4; FIGS. 5A-5D).

U87 = experiment: cells; conditions: Homo sapiens, U-87 MG, 72 h
Method: (§2) The effect of selected compounds on glioma cells viability was determined. The cells were plated at 2000 cells/well in 96 well plates. The day after, cells were treated with various concentrations of temozolomide or VMY-TP analogs.
(§3) Activity of TP-RGD was assessed in glioma cell cultures, as described in Example 11.

U251 = experiment: cells; conditions: Homo sapiens, U-251, 72 h
Method: as §2, §3

T98G = experiment: cells; conditions: Homo sapiens, 72 h
Method: as §2, §3

P-gp = experiment: Bidirectional Caco-2 permeability / P-gp efflux assay; type: in vitro ADME; conditions: human; for Papp A→B: read-out: Papp (AB) p-gp Inhibitor (−); for Papp B→A: read-out: Papp (BA) p-gp Inhibitor (−)
Method: Permeability of the compounds was evaluated in the bidirectional Caco-2 assay including identification of P-glycoprotein substrate (Pgp-mediated transport). Verapamil was used as a p-gp inhibitor. The apparent permeability (Papp) was calculated using the following equation:
Papp=VA/Area×Time×[drug]acc/[drug]initial,d
Permeability of the compounds was evaluated in the bidirectional Caco-2 assay as described in Example 11 (Table 15).

GBM8 = experiment: AlamarBlue cell viability, GBM8 patient-derived cell line; type: cell-based; conditions: 72 h, read-out: IC50, 72 h
Method: as §2

[3] = Metabolic stability in mouse liver microsomes; type: in vitro ADME; conditions: for microsomal CLint: mouse, liver microsomes
Method: Metabolic stability of the compounds was also determined in mouse liver microsomes at five time points over 60 minutes, using HPLC-MS. Liver microsomes, as vesicles of the hepatocyte endoplasmic reticulum, contain membrane phase I enzymes namely CYPs, flavine-containing monooxygenases (FMO), esterases, amidases, and epoxide hydrolases, and also the phase II enzymes such as UGTs. For the catalytic activity of both phase I and II enzymes, addition of exogenous cofactors such as NADPH for CYPs and FMO, and UDPGA/alamethicin for UGTs is necessary.

U251 Resistant = experiment: AlamarBlue cell viability, U251 TMZ resistant; type: cell-based; conditions: Homo sapiens, U-251; 72 hours
Method: as §1

[4] = BBB permeability, cassette intravenous dosing; type: in vivo, male CD-1 mice; conditions: cassette IV 5 mg/kg; for % Brain / % Plasma: 5 min; for concentration at 5 min / Kp at 5 min: male, CD-1, mouse; for concentration at 5 min: 10% DMSO in PBS; for Kp at 5 min: brain/plasma
Method: BBB permeability of the compounds was tested in male CD-1@IGS mice using cassette intravenous dosing (Table 7 and FIGS. 6A and 6B). There were three animals in each group, given a dose of 5 mg/kg formulated in 10% DMSO in PBS (v/v) for 5 minutes. The endpoint was quantifying the parent compound using LC-MS/MS. Plasma samples (50 μl) were immediately mixed with 25 μl of H3PO4 (8.5%). Then 225 μl of internal standard (IS; 400 ng/ml meldonium in methanol) was added. After mixing by pipetting and centrifuging for 4 min at 6000 rpm, 2 μl of each supernatant was injected into LC-MS/MS system. Brain samples (100 mg±1 mg) were immediately mixed with 100 μl H3PO4 (25%) and zirconium oxide beads (115 mg±5 mg). Then 400 μl of IS solution was added and samples were disperse using a bullet blender homogenizer for 30 seconds at speed 8. The samples were centrifuged for 4 min at 14,000 rpm and 2 μl of each supernatant was injected into LC-MS/MS system.

[5] = 2.0 mg/mL in 10% DMA + 15% Solutol HS15 + 10% PEG 400 + 10% PG + 55% of 15% (w/v) Captisol
[6] = Caco-2, without verapamil, read-out: Efflux Ratio BA/AB p-gp Inhibitor (−)
[7] = read-out: Intrinsic clearance (Clint)
[8] = 2.0 mg/mL in 10% DMA + 10% Tween 80 + 15% PEG 400 + 15% PG + 50% of 15% (w/v) Captisol
[9] = 2.0 mg/mL in 10% DMA + 10% Tween 80 + 15% PEG 400 + 15% PG + 50% of 25% (w/v) Captisol
[10] = 4.0 mg/mL in 5% DMA + 10% Tween 80 + 10% PEG 400 + 10% PG + 65% of 50% (w/v) Captisol
[11] = 4.0 mg/mL in 10% DMA + 10% Tween 80 + 10% PEG 400 + 10% PG + 60% of 50% (w/v) Captisol

Remarks (solubility) [1, 5]: Soluble
Stability (0-4 h) ([1]; Formulation 2, 2 mg/ml): Stable
Stability (0-4 h) ([1]; Formulation 3, 2 mg/ml): Stable
IC50 (U251 Parent (Sensitive)): 70 µM
IC50 (U87MG Parent (Sensitive)): 310 µM
IC50 (U87MG Resistant): > 1000 µM
half-life at 1 μM ([2]; 0.1 M phosphate buffer pH 8.0): 31 min
half-life at 1 μM ([2]; PBS pH 7.4): 59 min
IC50 (U87; read-out: IC50, 72 h, U87, MGMT −, Table 2): 208 µM
IC50 (U87; read-out: IC50, 72 h, U87MG, MGMT −, Table 14): 440 µM
IC50 (U251; read-out: IC50, 72 h, U251, MGMT −, Table 2): 898 µM
IC50 (U251; read-out: IC50, 72 h, U251, MGMT −, Table 14): 383 µM
IC50 (T98G; read-out: IC50, 72 h, T98G, MGMT +++, Table 14): > 600 µM
IC50 (T98G; read-out: IC50, 72 h, T98G, MGMT +, Table 2): 1140 µM
efflux ratio (P-gp; Caco-2, Caco-2 permeability, P-gp efflux ratio, Table 15, read-out: Efflux Ratio): 1.04
efflux ratio (P-gp; [6]): 1
Papp A→B (P-gp; Caco-2, without verapamil): 20.2 ×10⁻⁶ cm/s
Papp B→A (P-gp; Caco-2, without verapamil): 21 ×10⁻⁶ cm/s
Clearance Classification (Low <8.6; High >48) [3]: Moderate
microsomal CLint [3, 7]: 15 µL/min/mg
% remaining (1 h) With co-factors [3]: 65%
% remaining (1 h) Without co-factors [3]: 72%
IC50 (U251 Resistant): 180 µM
% Brain [4]: 7%
% Plasma [4]: 93%
concentration at 5 min ([4]; brain, read-out: Brain Conc.): 1290 ng/g
Kp at 5 min [4]: 0.23
concentration at 5 min ([4]; plasma, read-out: Plasma Conc): 5540 ng/mL
SMILES: Cn1nnc2c(C(N)=O)ncn2c1=O [TMZ, temozolomide]
IC50 (GBM8; GBM8, MGMT −, Table 2): 45 µM

SMILES: CCCCCCNC(=O)c1ncn2c(=O)n(C)nnc12 [TP3, N-hexyl-3-methyl-4-oxo-3,4-dihydroimidazo[5,1-d][1,2,3,5]tetrazine-8-carboxamide]
Remarks (solubility) ([1]; 2.0 mg/mL in 5% DMA + 10% Tween 80 + 10% PEG 400 + 10% PG + 65% of 15% (w/v) Captisol): Not Soluble
Remarks (solubility) ([1]; 2.0 mg/mL in 10% DMA + 10% Tween 80 + 10% PEG 400 + 10% PG + 60% Normal saline): Not Soluble
pH ([1]; 2.0 mg/mL in 10% DMA + 10% Tween 80 + 10% PEG 400 + 10% PG + 60% of 15% (w/v) Captisol (100 μL)): ~6
Remarks (solubility) ([1]; 2.0 mg/mL in 10% DMA + 10% Tween 80 + 10% PEG 400 + 10% PG + 60% of 15% (w/v) Captisol (100 μL, from 20 mg/mL DMA stock)): Soluble
Remarks (solubility) ([1]; 2.0 mg/mL in 10% DMA + 10% Tween 80 + 10% PEG 400 + 10% PG + 60% of 15% (w/v) Captisol (250 μL)): Not Soluble
Remarks (solubility) ([1]; 2.0 mg/mL in 10% DMA + 10% Tween 80 + 10% PEG 400 + 10% PG + 60% of 15% (w/v) HPβCD): Not Soluble
Remarks (solubility) [1, 8]: Soluble
pH [1, 8]: ~6
Remarks (solubility) [1, 9]: Soluble
pH [1, 9]: ~6
Remarks (solubility) [1, 5]: Soluble
Remarks (solubility) [1, 10]: Soluble
pH [1, 10]: ~6
Remarks (solubility) ([1]; 4.0 mg/mL in 5% DMA + 10% Tween 80 + 10% PEG 400 + 10% PG + 65% of 50% (w/v) HPβCD): Not Soluble
Remarks (solubility) ([1]; 4.0 mg/mL in 10% DMA + 5% Tween 80 + 15% PEG 400 + 15% PG + 50% of 25% (w/v) Captisol): Not Soluble
Remarks (solubility) ([1]; 4.0 mg/mL in 10% DMA + 5% Tween 80 + 85% Normal saline): Not Soluble
Remarks (solubility) ([1]; 4.0 mg/mL in 10% DMA + 10% Tween 80 + 10% PEG 400 + 10% PG + 60% Normal saline): Not Soluble
Remarks (solubility) [1, 11]: Soluble
pH [1, 11]: ~6
Remarks (solubility) ([1]; 4.00 mg/mL in 25% of DMSO + 75% Normal Saline): Not Soluble
Stability (0-4 h) ([1]; Formulation 2, 2 mg/ml): Stable
pH ([1]; Formulation 2, 2 mg/ml): 4.81
Stability (0-4 h) ([1]; Formulation 3, 2 mg/ml): Stable
pH ([1]; Formulation 3, 2 mg/ml): 5.66
IC50 (U251 Parent (Sensitive)): 71 µM
IC50 (U87MG Parent (Sensitive)): 250 µM
IC50 (U87MG Resistant): 280 µM
half-life at 1 μM ([2]; 0.1 M phosphate buffer pH 7.0): 119 min
half-life at 1 μM ([2]; 0.1 M phosphate buffer pH 8.0): 39 min
half-life at 1 μM ([2]; PBS pH 7.4): 62 min
IC50 (U87; read-out: IC50, 72 h): 399 µM
IC50 (U251; read-out: IC50, 72 h): 397 µM
IC50 (T98G; read-out: IC50, 72 h): 1260 µM
efflux ratio (P-gp; [6]): 0.6
Papp A→B (P-gp; Caco-2, without verapamil): 30.7 ×10⁻⁶ cm/s
Papp B→A (P-gp; Caco-2, without verapamil): 17 ×10⁻⁶ cm/s
IC50 (GBM8): 2 µM
microsomal CLint ([3]; read-out: Clearance Classification (Low <8.6; High >48)): > 48 µL/min/mg
microsomal CLint [3, 7]: 358 µL/min/mg
% remaining (1 h) With co-factors [3]: 0%
% remaining (1 h) Without co-factors [3]: 80%
IC50 (U251 Resistant): 63 µM
% Brain [4]: 20%
% Plasma [4]: 80%
concentration at 5 min ([4]; brain, read-out: Brain Conc.): 2080 ng/g
Kp at 5 min [4]: 0.71
concentration at 5 min ([4]; plasma, read-out: Plasma Conc): 2920 ng/mL
